#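 1) Cells in 96-well plates. 2) Compound, 48 h, 5 concentrations. 3) Linear interpolation between surrounding doses. 4) Unreached endpoint = highest concentration. GI50 = concentration required for 50% inhibition of growth.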 Calls of active or inactive are those of the source. Rule as the data show it: active = GI50 up to about 1.1 µM and inactive = higher.
# Columns and labels:
# Test in all cases: NCI tumour cell line growth inhibition, 48 h
# TK-10 = system: TK-10
# SK-OV-3 = system: SK-OV-3
# CAKI-1 = system: CAKI-1
# OVCAR-5 = system: OVCAR-5
# HT-29 = system: HT-29
# SR = system: SR
# SF-295 = system: SF-295
# NCI-H460 = system: NCI-H460
# HL-60 = system: HL-60
# KM12 = system: KM12
# SNB-19 = system: SNB-19
# OVCAR-4 = system: OVCAR-4
# HOP-62 = system: HOP-62
# RXF 393 = system: RXF 393
# LXFL 529 = system: LXFL 529
# HCC 2998 = system: HCC 2998
# MDA-N = system: MDA-N
# BT-549 = system: BT-549
# Hs-578T = system: Hs-578T
# DU-145 = system: DU-145
Structure (SMILES),GI50 (TK-10),GI50 (SK-OV-3),GI50 (CAKI-1),GI50 (OVCAR-5),GI50 (HT-29),GI50 (SR),GI50 (SF-295),GI50 (NCI-H460),GI50 (HL-60),GI50 (KM12),GI50 (SNB-19),GI50 (OVCAR-4),GI50 (HOP-62),GI50 (RXF 393),GI50 (LXFL 529),GI50 (HCC 2998),GI50 (MDA-N),GI50 (BT-549),GI50 (Hs-578T),GI50 (DU-145)
CN(C)CCC(/C=C/c1ccccc1)=N\Nc1ccc(Cl)c(Cl)c1,2.38 µM (inactive),4.53 µM (inactive),2.61 µM (inactive),3.33 µM (inactive),2.24 µM (inactive),2.09 µM (inactive),3.78 µM (inactive),2.01 µM (inactive),2.7 µM (inactive),2.05 µM (inactive),5.53 µM (inactive),3.56 µM (inactive),3.15 µM (inactive),2.74 µM (inactive),2 µM (inactive),–,–,–,–,–
O=C(/C=C/c1ccc(Cl)cc1)c1ccncc1,33.4 µM (inactive),> 100 µM (inactive),30.8 µM (inactive),> 100 µM (inactive),22.3 µM (inactive),45.9 µM (inactive),47.1 µM (inactive),59.7 µM (inactive),32 µM (inactive),26 µM (inactive),98.4 µM (inactive),22.5 µM (inactive),98.9 µM (inactive),21.4 µM (inactive),60.5 µM (inactive),40.4 µM (inactive),–,–,–,–
Brc1ccccc1/C=N\C12CC3CC(CC(C3)C1)C2,> 100 µM (inactive),> 100 µM (inactive),24.8 µM (inactive),> 100 µM (inactive),38.4 µM (inactive),1.15 µM (inactive),63.8 µM (inactive),> 100 µM (inactive),0.879 µM (active),> 100 µM (inactive),> 100 µM (inactive),> 100 µM (inactive),> 81.8 µM (inactive),97.9 µM (inactive),10.3 µM (inactive),> 100 µM (inactive),3.38 µM (inactive),> 100 µM (inactive),> 64.6 µM (inactive),> 100 µM (inactive)
NC(=O)c1csc(C2C=CC(CO)O2)n1 (stereo not given),> 100 µM (inactive),> 100 µM (inactive),> 100 µM (inactive),> 100 µM (inactive),> 100 µM (inactive),–,> 10 µM (inactive),> 100 µM (inactive),> 100 µM (inactive),> 10 µM (inactive),> 100 µM (inactive),> 100 µM (inactive),> 100 µM (inactive),–,> 100 µM (inactive),> 100 µM (inactive),–,–,–,–
Nc1nc2c(c(=O)[n-]1)[n+](CCO)cn2C1OC(CO)C(O)C1O (stereo not given),> 100 µM (inactive),> 100 µM (inactive),> 100 µM (inactive),> 100 µM (inactive),> 100 µM (inactive),> 100 µM (inactive),> 100 µM (inactive),> 100 µM (inactive),> 100 µM (inactive),> 100 µM (inactive),–,> 100 µM (inactive),> 100 µM (inactive),> 100 µM (inactive),> 100 µM (inactive),–,–,–,–,–
C=C(C(=C)P(=S)(C(C)C)C(C)C)P(=S)(C(C)C)C(C)C,> 100 µM (inactive),> 100 µM (inactive),> 100 µM (inactive),> 100 µM (inactive),> 100 µM (inactive),> 100 µM (inactive),> 100 µM (inactive),> 100 µM (inactive),> 100 µM (inactive),> 100 µM (inactive),> 100 µM (inactive),> 100 µM (inactive),> 100 µM (inactive),> 100 µM (inactive),> 100 µM (inactive),> 100 µM (inactive),–,–,–,–
O=C(O)c1c2c(cc3c(=O)c4ccccc4[nH]c13)CCCC2,> 100 µM (inactive),> 100 µM (inactive),–,> 100 µM (inactive),> 100 µM (inactive),> 100 µM (inactive),68.5 µM (inactive),> 100 µM (inactive),> 100 µM (inactive),–,88.5 µM (inactive),–,> 100 µM (inactive),> 100 µM (inactive),> 100 µM (inactive),46.3 µM (inactive),–,–,–,–
CC(C)c1ccccc1NC(=O)CCc1n[nH]c(=S)o1,> 100 µM (inactive),> 100 µM (inactive),> 100 µM (inactive),> 100 µM (inactive),> 90.4 µM (inactive),> 100 µM (inactive),> 100 µM (inactive),> 49.9 µM (inactive),> 59.8 µM (inactive),> 100 µM (inactive),> 100 µM (inactive),> 100 µM (inactive),> 100 µM (inactive),> 100 µM (inactive),> 79.8 µM (inactive),> 100 µM (inactive),–,–,–,–
O=[N+]([O-])c1cccc(/C=N/C23CC4CC(CC(C4)C2)C3)c1,> 100 µM (inactive),> 100 µM (inactive),> 100 µM (inactive),> 100 µM (inactive),> 100 µM (inactive),–,> 100 µM (inactive),> 100 µM (inactive),23.9 µM (inactive),> 100 µM (inactive),> 100 µM (inactive),> 100 µM (inactive),> 100 µM (inactive),> 100 µM (inactive),> 100 µM (inactive),> 100 µM (inactive),–,–,–,–
Cc1nc2ccccc2[s+]c1-c1cnc(NC#N)nc1C(=O)Nc1cccc(Cl)c1,> 100 µM (inactive),> 100 µM (inactive),> 100 µM (inactive),> 100 µM (inactive),> 100 µM (inactive),> 100 µM (inactive),> 100 µM (inactive),> 100 µM (inactive),–,> 100 µM (inactive),> 100 µM (inactive),> 100 µM (inactive),> 100 µM (inactive),> 100 µM (inactive),> 100 µM (inactive),> 100 µM (inactive),–,–,–,–
COC(=O)C1=C(O)c2cc(-c3ccccc3)c(-c3ccccc3)c(C#N)c2NC(=O)C1,–,–,7.03 µM (inactive),–,5.81 µM (inactive),2.96 µM (inactive),3.54 µM (inactive),3.7 µM (inactive),1.33 µM (inactive),7.01 µM (inactive),20.4 µM (inactive),27.2 µM (inactive),20.4 µM (inactive),1.7 µM (inactive),1.3 µM (inactive),34.9 µM (inactive),–,–,–,–
O=S(=O)(N/N=C/c1ccc(Cl)cc1Cl)c1ccccc1,> 100 µM (inactive),91.8 µM (inactive),59.4 µM (inactive),> 100 µM (inactive),80.2 µM (inactive),57 µM (inactive),> 100 µM (inactive),–,19.5 µM (inactive),51.2 µM (inactive),–,> 100 µM (inactive),> 100 µM (inactive),77.1 µM (inactive),74.3 µM (inactive),> 100 µM (inactive),–,–,–,–
Cc1cc(C)nc(NS(=O)(=O)c2ccc(Nc3c4ccccc4nc4c(C(=O)NCCN(C)C)cccc34)cc2)n1,10.6 µM (inactive),–,–,12.8 µM (inactive),1.14 µM (inactive),0.302 µM (active),1.91 µM (inactive),0.771 µM (active),1.49 µM (inactive),3.43 µM (inactive),1.85 µM (inactive),3.04 µM (inactive),2.52 µM (inactive),6.32 µM (inactive),4.25 µM (inactive),–,–,–,–,–
Cc1cc2c(C)n[nH]c2c(C(=O)O)c1C,–,–,> 100 µM (inactive),–,> 100 µM (inactive),> 100 µM (inactive),> 100 µM (inactive),> 100 µM (inactive),> 100 µM (inactive),> 100 µM (inactive),> 100 µM (inactive),51.6 µM (inactive),> 100 µM (inactive),> 100 µM (inactive),> 100 µM (inactive),> 100 µM (inactive),–,–,–,–
C/C(CC(=O)Nc1ccccc1)=N\NC(N)=S,> 100 µM (inactive),> 100 µM (inactive),–,> 100 µM (inactive),> 100 µM (inactive),–,> 100 µM (inactive),> 100 µM (inactive),> 100 µM (inactive),> 100 µM (inactive),–,–,> 100 µM (inactive),> 100 µM (inactive),> 100 µM (inactive),> 100 µM (inactive),–,–,–,–
CSC(C1c2ccccc2N(c2ccc(C)cc2)C2=NC(=O)N(C)C(=O)C21Cl)S(=O)(=O)c1ccc(C)cc1 (stereo not given),48.6 µM (inactive),42.1 µM (inactive),19.8 µM (inactive),35.3 µM (inactive),26.2 µM (inactive),–,24.2 µM (inactive),24 µM (inactive),3.31 µM (inactive),–,26.4 µM (inactive),17.9 µM (inactive),20.7 µM (inactive),–,17.5 µM (inactive),20.4 µM (inactive),–,–,–,–
COC1CC(n2cc(F)c(N)nc2=O)OC1CO (stereo not given),> 100 µM (inactive),> 100 µM (inactive),> 100 µM (inactive),> 100 µM (inactive),> 100 µM (inactive),–,> 100 µM (inactive),94 µM (inactive),> 100 µM (inactive),> 100 µM (inactive),> 100 µM (inactive),> 100 µM (inactive),> 100 µM (inactive),> 100 µM (inactive),> 100 µM (inactive),9.77 µM (inactive),–,–,–,–
COc1cc(CCc2ccncc2)cc(OC)c1OC,> 100 µM (inactive),–,> 100 µM (inactive),> 100 µM (inactive),> 100 µM (inactive),–,> 100 µM (inactive),> 100 µM (inactive),> 100 µM (inactive),> 100 µM (inactive),> 100 µM (inactive),> 100 µM (inactive),> 100 µM (inactive),> 100 µM (inactive),> 100 µM (inactive),–,–,–,–,–

# Source: ChEMBL document CHEMBL1201862, “PubChem BioAssay data set” (2004)
